# In PubChem BioAssay AID179 (DTP/NCI, 2004):
# Where “and” joins values, the source holds several entries; their conditions need not be identical. Equal entries are not always repeated. Calls of active or inactive are those of the source.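 Rule for the calls: active = compounds giving half or more protection of infected cells from virus-caused growth loss, again on retest; inactive = the rest.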
# Test system: CEM cells HIV-1 protection, formazan growth assay
# Test: NCI AIDS Antiviral Assay
# Conditions: for IC50: measured here: growth of uninfected CEM cells
# Summary of the method: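 Human CEM cells, uninfected and HIV-1-infected, received five drug concentrations, and growth was read by soluble formazan assay. Compounds giving at least 50% protection were retested; reproducible 100% protection defined confirmed active.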
SMILES,EC50 [µM],IC50,outcome
COc1cc(CCC(=O)CC(=O)CCc2ccc(O)c(OC)c2)ccc1O,> 200,34.7 µM,
CCOC(=O)C1=C(C)NC(=O)NC1c1ccccc1 (stereo not given),> 200,> 200 µM,
COc1ccc(Cc2c(N)[nH]c(=O)n(C)c2=O)cc1,> 200,89.1 µM,
COC(=O)c1cc2ccccc2c(CS(=O)(=O)O)c1O,> 200,56.2 µM,
COc1cc(OC)c2c(=O)c3ccccc3n3c(C(C)O)cc1c23 (stereo not given),> 200,4.79 µM,
O=C1c2ccccc2C(=O)c2sc(Nc3cc(Cl)ccc3Cl)nc21,> 200,10.5 µM,
C=CCNC(=O)NNC(O)(C(=O)OCC)C(F)(F)F (stereo not given),> 200,174 µM,
CC(=O)/C(=C/n1c(=S)[nH]c2ccccc21)C(=O)Nc1ccc([N+](=O)[O-])cc1,> 200,105 µM,
C=C(C)[C@H]1Cc2c(ccc3c2O[C@@H]2COc4cc(OC)c(OC)cc4[C@@H]2C3=O)O1,> 2,0.0479 µM,
O=[N+]([O-])c1cccc2nc3ccccc3c(NCCC[N+]3([O-])CCCCC3)c12,> 0.2,0.126 µM,
COc1cc2c(cc1OC)C1Cc3ccc(OC)c(OC)c3C[N+]1([O-])CC2 (stereo not given),> 135,> 135 µM,
COC(=O)C1C(O)CCC2CN3CCc4c([nH]c5ccccc45)C3CC21 (stereo not given),> 200,70.8 µM,
Cc1nc2ccc(Br)cc2c(=O)n1-c1ccc(NC2OC(CO)C(O)C(O)C2O)cc1 (stereo not given),> 200,> 200 µM and 195 µM,
[N-]=[N+]=Nc1cc(=O)n2c3c(cccc13)CCC2,,,inactive
Cc1cc(Cl)nc(Nc2nc3ccccc3[nH]2)n1,> 200,> 200 µM,
O=C1C2=C(c3ccccc31)C(c1ccccc1)N1C(=O)CSC1=N2 (stereo not given),> 77.6,34.7 µM,
C/C(=N\N)C(CN1CCOCC1)C(c1ccccc1)c1c(O)c2ccccc2oc1=O (stereo not given),> 89.1,85.1 µM,
CC1=C2[C@H](c3ccccc3)C3C=CC2(c2ccccc23)N(C(=O)C(c2ccccc2)c2ccccc2)C1=O (stereo not given in full),> 1.51,> 1.51 µM,
CCCCCC(=O)Nc1n[nH]nc1C(N)=O,> 200,> 200 µM,
COc1nc(C)nc2sc3c(c12)CCCC3,> 100,> 100 µM,
O=C(O)C(=Cc1ccc([N+](=O)[O-])cc1)C(=O)O,> 1050,550 µM,
CC1CCC2c3c([nH]c4ccccc34)C3C(=O)N(C4CCCCC4)C(=O)C3C2C1 (stereo not given),> 200,9.33 µM,
COC(=O)c1c2c(cc3c1CC1(Cc4cc5c(c(C=O)c4C1)CCCC5)C3)CCCC2 (stereo not given),> 200,24.5 µM,

SMILES,EC50 [µM],IC50,outcome
CC(=O)O[C@]12CCCCCC1C1(O)C(O)CCC[C@H]12 (stereo not given in full),> 200,> 200 µM,
O=C(O)c1ccc(CSc2ccccc2C(=O)O)c([N+](=O)[O-])c1,> 759,> 759 µM,
CCCCN(CCCC)C(=N)OC,> 200,70.8 µM,
CCOP(OCC)SSCn1nc2ccc3ccccc3n2c1=O,> 200,70.8 µM,
N#C[C@@H](c1ccccn1)c1ncccc1[N+](=O)[O-],> 200,> 200 µM,
CCOc1ccc(NC(=O)CC2SC(=Nc3ccc(Cl)cc3)NC2=O)cc1 (stereo not given),> 617,> 617 µM,
CN(C)c1ccc(/C=C2\Oc3ccccc3C2=O)cc1,> 200,> 200 µM,
O=C1C[C@@H]2[C@@H](C=CC23CC3)N1O,> 1510,> 1510 µM,
N#CC1(C#N)NC(c2ccsc2)C(C#N)(C#N)NC1c1ccsc1 (stereo not given),> 200,115 µM,
Cc1c(C(=O)O)n2c(=S)[nH]nc2c2ccccc12,> 200,> 200 µM,
CN/N=C/c1c2c(O)c3c(O)c(C)c4c(c3c1O)C(=O)C(C)(O/C=C/C(OC)C(C)C(OC(C)=O)C(C)C(O)C(C)C(O)C(C)/C=C/C=C(/C)C(=O)N2)O4 (stereo not given),> 200,26.3 µM,
COc1ccc(C(CC(=O)c2ccc3c(c2)OCO3)C(=O)O)cc1OC (stereo not given),,,inactive
O=C(CC1(O)C(=O)Nc2c(Cl)cc(Cl)cc21)c1ccc(Br)cc1 (stereo not given),> 26.9,15.8 µM,
CCCCCCCCOC1C(O)C(O)C(O)C(O)C12CO2 (stereo not given),> 200,75.9 µM,
CCN(CC)C1=C(N(CC)CC)C(N(CC)CC)=C(N(CC)CC)C1=O.[C-]#[O+].[C-]#[O+].[C-]#[O+].[Fe],> 2.88,> 2.88 µM,
CCOC(=O)c1nc2c(OC)nn(O)cc-2c1[N+](=O)[O-],> 457,5.75 µM,
CC(=O)OCC(C)C1=C(OC(C)=O)C(=O)C2(C)C/C=C(/C)CC/C=C(\C)CCC(OC(C)=O)C(C)CCC12 (stereo not given),> 200,14.5 µM,
Cc1ccc(Nc2c(C#N)[n+]([O-])c3cc(Cl)ccc3[n+]2[O-])cc1,> 20,19.1 µM,
N#C/C(=C\c1ccc(C#N)cc1)c1ccccc1,> 11.7,> 11.7 µM,
O=[N+]([O-])c1ccc(/C(=C\c2ccccc2)Cn2ccnc2)cc1,> 200,31.6 µM,
Cn1c(N=[N+]=[N-])cc(=O)n(C)c1=O,,,inactive
CC(=O)C1CC2(c3ccccc3)C(=O)c3ccccc3N2O1 (stereo not given),> 447,195 µM,
COC1CN(C)C(=Nc2cccc3ccccc23)S1 (stereo not given),> 200,112 µM,

SMILES,EC50 [µM],IC50,outcome
COC(=O)c1c(C)cccc1C1CN=NC12Cc1c(C)cccc1C2=O (stereo not given),36.3,72.4 µM,
COc1ccccc1N=NC(C(=O)c1ccccc1)C(=O)c1ccccc1,> 52.5,0.513 µM,
CN(C(=O)c1ccccc1S)c1ccccc1,> 200,20.4 µM,
CC(=O)NC1=C(C)C(=O)c2c(nc3n2CCC3O)C1=O (stereo not given),> 200,1.58 µM,
COc1ccc(N=Nc2c(N)nn3cc4c(nc23)CCCCC4)cc1,> 200,34.7 µM,
C=CCSCCCC#Cc1ccccc1C(=O)OC,> 200,151 µM,
C1CCCC(N2N=NC3C4CC(C5N=NN(C6CCCCCC6)C45)C32)CC1 (stereo not given),> 200,> 200 µM,
O=c1c2cccnc2cc(-c2ccccc2)n1CCO,> 200,> 200 µM,
NC1=NC(=O)C(CC(=O)Nc2ccc([N+](=O)[O-])cc2[N+](=O)[O-])S1 (stereo not given),> 75.9,> 75.9 µM,
CC1(C)NC(C)(C)/C(=N\O)C(=NO)/C1=N/O,> 200,> 200 µM,
C[C@]12C=CC(=O)C=C1CC[C@H]1[C@@H]3C[C@@H](O)[C@](O)(C(=O)CO)[C@@]3(C)C[C@H](O)[C@@]12F,,,inactive
N#CC(c1ccccc1)[P+](c1ccccc1)(c1ccccc1)c1ccccc1 (stereo not given),> 200,141 µM,
O=C1CCSc2c(cnc3ccccc23)N1,> 200,> 200 µM,
O=C(O)C1CC(O)CN1S(=O)(=O)Cc1ccccc1 (stereo not given),> 200,> 200 µM,
CC(=O)NC(C)(C)C1CCC(C)=C(c2ccccc2)C1 (stereo not given),> 95.5,47.9 µM,
O=c1cn[nH]c2nc3ccccc3n12,> 200,> 200 µM,
COC(=O)N/N=C(\Cc1ccccc1)CN(C)C,> 200,> 200 µM,
CCOC(=O)CCNC(=O)c1ccccc1SC(=O)CCCC[n+]1ccccc1,> 2,1.51 µM,
CCOC(=O)C1=C(C)NC2=C(C(=O)CC(C)(C)C2)C1CCSC (stereo not given),> 200,> 200 µM,
c1ccc2nc([Se][Se]c3ccc4ccccc4n3)ccc2c1,> 9.12,4.17 µM,
CCN(CC)CCCNc1nccc2c(C)c3c(cc12)c1cnccc1n3C,,,inactive
OCC1OC(n2cnc3c(Cl)nc(Nc4ccc(Cl)c(Cl)c4)nc32)CC1O (stereo not given),> 200,3.72 µM,
CCSC(CC(O)C(O)C(O)CO)SCC (stereo not given),> 200,> 200 µM,

SMILES,EC50 [µM],IC50,outcome
CC1CNc2cccc3[nH]c(=S)n(c23)C1 (stereo not given),> 200,> 200 µM,
CNc1cc[nH]c(=O)c1NC(C)=O,> 1380,> 1380 µM,
CCCN(CCC)C(=S)N/N=C/c1cccc(C)n1,> 200,0.0631 µM,
COc1ccc(C2=C(Cl)c3cc(OC)c(OC)cc3C2OC)cc1OC (stereo not given),> 26.3,> 26.3 µM,
Oc1cc(Cc2ccccc2)c(Cc2ccccc2)cc1O,> 200,34.7 µM,
CCOC(=O)Cc1ccc2c(c1)sc1nc(-c3ccc(OC)cc3)cn12,> 200,60.3 µM,
CCOC(=O)C(C)(C)Oc1ccc2c(=O)cc(-c3ccccc3)oc2c1,> 53.7,36.3 µM,
C#CC1(O)CCC2C3CCc4cc(OC)ccc4C3CCC21C (stereo not given),> 200,74.1 µM,
O=[N+]([O-])c1ccc(/C=C/c2ccc([N+](=O)[O-])cc2S(=O)(=O)O)c(S(=O)(=O)O)c1,,,inactive
CC1(C)Oc2ccc3c(=O)c(-c4ccccc4)c(-c4ccccc4)oc3c2C1C(=O)O (stereo not given),> 200,72.4 µM,
CC1(C)OC[C@H](COCOP2(=O)Oc3ccc4ccccc4c3-c3c(ccc4ccccc34)O2)O1,> 200,34.7 µM,
Nc1ccccc1-c1noc(=O)[nH]1,> 200,> 200 µM,
[O-][n+]1c(-c2ccccc2)c2nc3ccccc3nc2c2ccccc21,> 39.8,> 39.8 µM,
CC(C)(C)NC1=NC(C(F)(F)F)(C(F)(F)F)NC(=O)N1,> 200,70.8 µM,
CCN1CCC(O)(c2ccc(C)cc2)C(C(=O)c2ccc(C)cc2)C1 (stereo not given),> 162,11.7 µM,
CC(=O)OC1C=C2c3cc4c(c(O)c3C(=O)NC2[C@H](OC(C)=O)[C@@H]1OC(C)=O)OCO4 (stereo not given in full),,,inactive
COC(=O)c1ccc(N=Cc2ccc(C=Nc3ccc(C(=O)OC)cc3)cc2)cc1,> 12.9,> 12.9 µM,
[O-][n+]1onc2c3nn(-c4ccccc4)nc3ccc21,> 200,12 µM,
CC[P+]1(c2ccccc2)[C@@H](C)CC[C@@H]1C,> 200,91.2 µM,
Cc1ccc(/C=C2\CCOC2=O)cc1,> 138,> 138 µM,
CCOc1ccc(NC(=O)C(=O)C(C(=O)c2ccc3ccccc3c2)C2OC(=O)c3ccccc32)cc1 (stereo not given),> 52.5,45.7 µM,
O=C1NNC(=O)C2C3C=CC(O3)C12 (stereo not given),> 200,> 200 µM,
